The values that follow come from publication PMC12557437, “Research towards selective inhibition of the CLK3 kinase” (Beilstein Journal of Organic Chemistry, 2025).

A word on the pIC50: it is −log10 of the IC50, conventionally taken in molar units. Lower therefore signals a large IC50.

pIC50: −log10 of the molar value.

Common to all, as to assay: radiometric γ33P-ATP kinase assay (Eurofins)
Type in all cases: biochemical

One test concerns the target Mm_CLK3 (Mus musculus, UniProt O35492). The settings on record: 15 µM ATP; dose-response, points in duplicate. As for the experimental part:
(§1) The results are reported in Table 2 and in Supporting Information File 1.
(§2) 2- Kinase inhibition studies
(§3) Kinase enzymatic activities were assayed using both luminescent ADP detection assay
(§4) (ADP-GloTM assay kit, Promega, Madison, WI) or radiometric kinase assay. These
(§5) assays were performed using the protocols described in our previous publication. […]
(§6) 1.Brahmaiah, D.; Kanaka Durga Bhavani, A.; Aparna, P.; Sampath Kumar, N.; Solhi,
(§7) H.; Le Guevel, R.; Baratte, B.; Ruchaud, S.; Bach, S.; Singh Jadav, S.; Raji Reddy, C.;
(§8) Roisnel, T.; Mosset, P.; Levoin, N.; Grée, R. Bioorg.
R.; Baratte, B.; Robert, T.; Ruchaud, S.; Bach, S.; Jadav, S. S.; Reddy, C. R.; Mosset,
P.; Gouault, N.; Levoin, N.; Grée, R. Molecules 2022, 27, 6149. […]

The target in the next test is Mm_CLK2 (Mus musculus, UniProt O35491). As for the experimental part: as §1, §2, §3, §4, §5, §6, §7, §8
Mm_CLK2, sequence (O35491 whole entry): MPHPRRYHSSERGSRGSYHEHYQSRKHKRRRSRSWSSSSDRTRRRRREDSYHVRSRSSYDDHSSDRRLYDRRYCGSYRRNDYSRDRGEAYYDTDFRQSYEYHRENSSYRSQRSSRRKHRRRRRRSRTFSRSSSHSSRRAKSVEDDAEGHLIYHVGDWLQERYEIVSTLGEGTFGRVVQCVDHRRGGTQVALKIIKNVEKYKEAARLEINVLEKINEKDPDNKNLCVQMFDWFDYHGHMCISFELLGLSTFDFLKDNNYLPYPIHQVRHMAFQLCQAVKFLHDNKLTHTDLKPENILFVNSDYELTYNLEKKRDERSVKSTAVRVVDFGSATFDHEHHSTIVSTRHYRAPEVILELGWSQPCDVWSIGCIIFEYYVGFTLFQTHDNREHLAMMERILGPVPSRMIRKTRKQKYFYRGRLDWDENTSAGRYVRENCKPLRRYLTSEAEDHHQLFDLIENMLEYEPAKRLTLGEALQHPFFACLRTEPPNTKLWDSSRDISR
(§9) R.; Baratte, B.; Robert, T.; Ruchaud, S.; Bach, S.; Jadav, S. S.; Reddy, C. […]

The next test deals with Mm_CLK1 (Mus musculus, UniProt P22518). As for the experimental part:
as §1, §2, §3, §4, §5, §6, §7, §8, §9

For a further test, the target named is Mm_CLK4 (Mus musculus, UniProt O35493). As for the experimental part: as §1, §2, §3, §4, §5, §6, §7, §8, §9
Mm_CLK4, sequence (O35493 whole entry): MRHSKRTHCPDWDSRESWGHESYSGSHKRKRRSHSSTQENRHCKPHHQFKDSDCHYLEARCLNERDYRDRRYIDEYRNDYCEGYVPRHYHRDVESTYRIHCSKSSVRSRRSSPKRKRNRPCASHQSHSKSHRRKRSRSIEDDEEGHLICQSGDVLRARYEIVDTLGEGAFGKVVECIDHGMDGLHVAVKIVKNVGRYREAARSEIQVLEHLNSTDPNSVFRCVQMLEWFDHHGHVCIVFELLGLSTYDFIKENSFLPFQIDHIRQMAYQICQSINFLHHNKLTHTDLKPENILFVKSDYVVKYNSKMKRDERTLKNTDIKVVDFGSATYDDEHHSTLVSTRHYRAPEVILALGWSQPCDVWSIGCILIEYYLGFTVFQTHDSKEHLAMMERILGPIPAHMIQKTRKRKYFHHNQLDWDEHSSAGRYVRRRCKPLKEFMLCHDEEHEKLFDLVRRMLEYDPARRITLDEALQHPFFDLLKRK
[1] abbreviates: 15 µM ATP, dose-response, points in duplicate.

Mm_CLK1, sequence (P22518 whole entry): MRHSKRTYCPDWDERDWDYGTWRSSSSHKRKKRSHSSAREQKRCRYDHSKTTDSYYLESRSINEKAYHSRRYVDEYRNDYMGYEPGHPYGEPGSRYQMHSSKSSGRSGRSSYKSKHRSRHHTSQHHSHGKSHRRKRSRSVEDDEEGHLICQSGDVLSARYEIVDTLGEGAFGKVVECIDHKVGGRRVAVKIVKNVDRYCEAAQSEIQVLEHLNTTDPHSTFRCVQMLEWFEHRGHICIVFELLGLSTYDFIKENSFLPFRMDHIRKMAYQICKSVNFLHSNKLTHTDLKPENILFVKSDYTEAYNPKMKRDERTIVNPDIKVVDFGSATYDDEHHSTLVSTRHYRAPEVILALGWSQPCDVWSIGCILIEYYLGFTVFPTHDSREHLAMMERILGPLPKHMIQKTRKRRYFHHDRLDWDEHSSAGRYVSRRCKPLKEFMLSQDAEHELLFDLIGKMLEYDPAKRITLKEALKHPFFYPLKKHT
Mm_CLK3, sequence (O35492 whole entry): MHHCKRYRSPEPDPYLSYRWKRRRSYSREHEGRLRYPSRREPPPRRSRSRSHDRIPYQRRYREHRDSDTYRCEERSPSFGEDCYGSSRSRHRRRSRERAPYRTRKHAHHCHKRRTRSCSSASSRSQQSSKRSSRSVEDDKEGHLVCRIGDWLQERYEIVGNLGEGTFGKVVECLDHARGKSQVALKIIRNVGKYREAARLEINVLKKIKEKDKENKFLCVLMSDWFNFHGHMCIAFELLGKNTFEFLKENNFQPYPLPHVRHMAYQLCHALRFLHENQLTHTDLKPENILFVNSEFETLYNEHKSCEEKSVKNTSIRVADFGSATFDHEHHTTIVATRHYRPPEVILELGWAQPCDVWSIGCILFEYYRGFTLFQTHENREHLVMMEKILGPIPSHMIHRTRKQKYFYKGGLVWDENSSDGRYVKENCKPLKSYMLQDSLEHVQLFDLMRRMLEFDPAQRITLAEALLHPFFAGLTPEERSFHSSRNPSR

For the molecule `Cc1ccc(-n2cc(COc3cccc4cnc(Nc5cc(Cl)cc(-c6cccc(C(=O)O)c6)c5)nc34)nn2)c([N+](=O)[O-])c1` [Compound 13b], the pIC50 at Mm_CLK3 is 6.52; on Mm_CLK2 (setting [1]), 7.21; against Mm_CLK1 (setting [1]) it was 6.90; on Mm_CLK4 (setting [1]), 7.21. In addition, the Mm_CLK3/Mm_CLK2 at Mm_CLK2 (ratio of IC50 values) came to 4.97. Further, the Mm_CLK3/Mm_CLK1 on Mm_CLK1 (ratio of IC50 values) is 2.38. Further, on Mm_CLK4 (ratio of IC50 values), the Mm_CLK3/Mm_CLK4 is on record as 4.89.
